This is an account of results in patent US9371337B2, “β-lactamase inhibitors” (The Regents of the University of California, priority 2011, dated 2016).

The subject of experiment [1] is K. pneumoniae and E. cloacae strains in which AmpC expression is inducible. In words: β-lactamase induction experiments (disk potentiation of ceftazidime). In kind it is cell-based, Klebsiella pneumoniae; Enterobacter cloacae. As to conditions: 64 μg of compounds or 32 μg cefoxitin per disk, ceftazidime disk 30 μg. The text has this: (§1) FIG. 9. Inhibition of bacterial growth and potentiation effect. A) Activity of compounds 4 (CP4) and 9 (CP9) in combination with ceftazidime (CAZ) and alone against a Klebsiella pneumoniae strain producing AmpC β-lactamase. Solvent (SOL):DMSO/Water 1:1. B) Potentiation of β-lactamase inhibition in an E. cloacae strain in which ampC gene expression is inducible by β-lactam antibiotics, such as cefoxitin (FOX). C) Potentiation of β-lactamase inhibition in a Klebsiella pneumoniae isolate producing the inducible class C enzyme DHA-1.
A traditional β-lactam resistance mechanism is the upregulation of β-lactamase-encoding gene transcription caused by β-lactams such as cefoxitin and the β-lactamase inhibitor clavulanate. To test the role of compounds on the induction of AmpC expression, we investigated their ability to potentiate the action of the β-lactam ceftazidime. We compared the potentiation effect of compounds with that of cefoxitin (FIGS. 9B and 9C). Agar plates were inoculated with K. pneumoniae and E. cloacae strains in which AmpC expression is inducible. A ceftazidime-containing disk and a disk containing the inhibitors (cefoxitin or compounds 4 and 9) were placed on each plate. As ceftazidime diffuses from disks into the agar, a clear zone is created around the ceftazidime-containing disk, indicating where bacteria are unable to grow. The shape of this halo in the vicinity of the inhibitor-containing disk indicated the effect of these compounds on the induction of AmpC. The inhibition halos normally surrounding ceftazidime were substantially diminished in the regions nearest to the cefoxitin disk.
For the β-lactamase induction experiments, plates of Mueller Hinton agar were inoculated with two clinical strains (E. cloacae and K. pneumoniae) in which production of AmpC-type enzyme is inducible by β-lactam antibiotics. Inhibitors were added to blank disks, and the final content of inhibitor per disk was 64 μg of compounds and 32 μg cefoxitin. Disks of ceftazidime contained 30 μg of antibiotic.

In experiment [2] the test system is C. freundii overproducing chromosomally-mediated class C β-lactamase. In words: MIC of third-generation cephalosporins alone and with compounds 4 or 9 (Table 3). The format is cell-based, Citrobacter freundii. The settings on record: ratio 1:1. The text has this: (§2) Antimicrobial activity was investigated quantitatively to determine the minimum inhibitory concentrations (MICs) of the β-lactam/inhibitor combination necessary to inhibit the bacterial growth (Table 3). The MICs of β-lactams alone against the strains corresponded to a high level of resistance according to Clinical and Laboratory Standards Institute (CLSI) standards. (Clinical and Laboratory Standards Institute, Performance standards for antimicrobial susceptibility testing, 20th Informational Supplement, M100-S20 2010) The compounds had no measurable antibiotic activity when used alone.
(§3) Susceptibility testing was performed and interpreted following the guidelines of CLSI. (Clinical and Laboratory Standards Institute, Performance standards for antimicrobial susceptibility testing, 20th Informational Supplement, M100-S20 2010) The compounds were dissolved in 50% DMSO, and dilutions were performed using Muller-Hinton medium. An adequate final concentration was obtained to determine the minimum inhibitory concentrations (MICs). The concentration of DMSO was maintained below 5%. The inhibitors were tested for synergy with the third-generation β-lactams ceftazidime and cefotaxime against several clinical bacteria. […] Each value reported reflects the average of three independent experiments. […] A Klebsiella pneumoniae isolate produced the inducible plasmid-mediated class C enzyme DHA-1. The Friedman's test and the Wilcoxon signed rank test were used to compare MIC values. Statistical significance was established at p<0.05.

Another experiment deals with CTX-M-9 β-lactamase (Escherichia coli, UniProt Q9L5C8). In words: biochemical. In kind it is biochemical. As to conditions: for IC50: Table 4a, read-out: IC50.
For the next experiment, the target named is cruzain (Trypanosoma cruzi, UniProt P25779). In words: Cruzain inhibition, Z-FR-AMC cleavage. The format is biochemical. The method, then:
Cruzain assays were performed in 100 mM sodium acetate pH 5.5 with 0.01% Triton-X and 5 mM dithiothreitol. Cruzain activity was measured in a 96-well format fluorimetric assay, monitoring the cleavage of the substrate Z-Phe-Arg-aminomethylcoumarin (Z-FR-AMC), in a SpectraMax M5, Molecular Devices spectrofluorimeter.

Experiment [3] deals with K. pneumoniae producing the plasmid-mediated class C β-lactamase DHA-1. In words: MIC of third-generation cephalosporins alone and with compounds 4 or 9 (Table 3). The format is cell-based, Klebsiella pneumoniae. As to conditions: ratio 1:1.
Source text: as §2, §3

Experiment [4] concerns the target T1, α-chymotrypsin (bovine pancreatic) (Bos taurus, UniProt P00766).
T1 construct: purchased Sigma-Aldrich
In words: α-Chymotrypsin inhibition. In kind it is biochemical.

The test system of experiment [5] is E. coli overproducing chromosomally-mediated class C β-lactamase. In words: MIC of third-generation cephalosporins alone and with compounds 4 or 9 (Table 3). The format is cell-based, Escherichia coli. The settings on record: ratio 1:1.
Source text: as §2, §3

The test system of experiment [6] is E. coli producing plasmid-mediated class A β-lactamase CTX-M-14. The experiment is described as above. In kind it is cell-based, Escherichia coli. As to conditions: ratio 1:1.
Source text: as §2, §3

For experiment [7], the system named is E. cloacae overproducing chromosomally-mediated class C β-lactamase. Described as above. In kind it is cell-based, Enterobacter cloacae. The settings on record: ratio 1:1.
Source text: as §2, §3

Experiment [8] relates to Klebsiella pneumoniae strain producing AmpC β-lactamase. The experiment can be described thus: Disk diffusion plate assay. The format is cell-based. As to conditions: for inhibition of bacterial growth in combination with ceftazidime: disk with ceftazidime (30 μg) and inhibitor (30 μg); for activity on bacteria growth, compound alone: disk with inhibitor alone (30 μg).
Source text: as §1
For disk diffusion plate assays, bacterial strains were diluted in sterile water to a turbidity equivalent to 0.5 McFarland turbidity standards. After a subsequent 10-fold dilution, the bacterial suspensions were inoculated on Mueller Hinton agar. The plates were dried for 10 min before applying the disks containing cefotaxime or ceftazidime antibiotics (30 μg) or the inhibitor (30 μg) or both. After overnight incubation at 37° C., the zones of bacterial-growth inhibition were measured.

The test system of experiment [9] is P. aeruginosa overproducing chromosomally-mediated class C β-lactamase. In words: MIC of third-generation cephalosporins alone and with compounds 4 or 9 (Table 3). The settings on record: ratio 1:1. The format is cell-based, Pseudomonas aeruginosa.
Source text: as §2, §3

The next experiment deals with T2, AmpC β-lactamase (Escherichia coli, UniProt P00811).
T2 construct: made in house
The format is biochemical. The settings on record: enzyme incubation and dilution experiments.

What is called Ki is a dissociation constant, usually derived from enzyme kinetics or from competition with a known ligand. As usually defined, the IC50 is the point on the concentration scale where inhibition reaches its midpoint.

Like-named read-outs stand apart in the source and are kept apart here.

Chain of CTX-M-9 β-lactamase (Q9L5C8 29-291): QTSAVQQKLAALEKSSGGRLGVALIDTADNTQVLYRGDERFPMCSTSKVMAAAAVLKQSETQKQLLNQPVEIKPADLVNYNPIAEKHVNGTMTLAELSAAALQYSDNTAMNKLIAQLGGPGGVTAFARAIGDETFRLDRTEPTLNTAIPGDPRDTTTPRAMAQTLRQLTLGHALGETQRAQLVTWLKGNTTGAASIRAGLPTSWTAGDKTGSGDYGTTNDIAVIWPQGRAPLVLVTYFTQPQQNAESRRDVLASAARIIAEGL
Chain of cruzain (P25779 123-337 limits assumed): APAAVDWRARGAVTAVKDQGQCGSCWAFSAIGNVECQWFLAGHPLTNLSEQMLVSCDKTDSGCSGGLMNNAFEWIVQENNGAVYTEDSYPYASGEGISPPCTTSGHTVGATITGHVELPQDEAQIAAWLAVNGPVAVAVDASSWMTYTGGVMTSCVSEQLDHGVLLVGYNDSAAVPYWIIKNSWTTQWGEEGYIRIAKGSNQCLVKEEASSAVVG
T2 sequence (P00811 20-377): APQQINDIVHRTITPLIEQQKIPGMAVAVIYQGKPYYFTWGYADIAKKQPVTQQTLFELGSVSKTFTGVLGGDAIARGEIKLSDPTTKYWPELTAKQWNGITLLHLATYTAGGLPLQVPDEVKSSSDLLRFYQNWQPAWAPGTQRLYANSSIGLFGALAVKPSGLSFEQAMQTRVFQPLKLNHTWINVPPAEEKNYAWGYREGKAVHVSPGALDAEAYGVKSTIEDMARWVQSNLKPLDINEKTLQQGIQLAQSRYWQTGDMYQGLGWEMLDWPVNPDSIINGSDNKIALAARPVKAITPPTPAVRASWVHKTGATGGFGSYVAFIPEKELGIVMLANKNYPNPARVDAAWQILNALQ

`O=S(=O)(Cc1ccccc1)NCB(O)O` [Compound 4, Pinacol(phenylmethanesulfonylamino)methaneboronate]: the “effect on the ceftazidime inhibition halo (induction of AmpC)” value in experiment [1] is on record as “synergic picture”. The “MIC of cefotaxime with compound” value turned out to be 2 µg/mL in experiment [2]; 4 µg/mL in experiment [3]; 1 µg/mL in [5]; 16 µg/mL in experiment [6]; 4 µg/mL in experiment [7]; 16 µg/mL in experiment [9]. The “MIC of ceftazidime with compound” value came out at 4 µg/mL in experiment [2]; 8 µg/mL in [3]; 4 µg/mL in experiment [5]; 2 µg/mL in experiment [6]; 4 µg/mL in experiment [7]; 4 µg/mL in experiment [9]. Further, the Ki stood at 2500 nM on CTX-M-9 β-lactamase and 2530 nM on CTX-M-9 β-lactamase (read-out: Ki corresponding to the IC50 values). The results for the IC50 (on CTX-M-9 β-lactamase; at cruzain; in experiment [4]) were 6870 nM, over 500000 nM and over 500000 nM, respectively. Moreover, the “inhibition at 100 µM” value (at cruzain; in [4]) was “no measurable inhibition” in each case. The “inhibition of bacterial growth in combination with ceftazidime” value in experiment [8] is reported as “large inhibition halo”. Also, in [8], the “activity on bacteria growth, compound alone” value is listed as “little or no detectable activity”.
On to `O=C(O)c1ccc(CS(=O)(=O)NCB(O)O)cc1` [Compound 9, [(4-carboxyphenyl)methanesulfonylamino]methaneboronic acid], for which the “effect on the ceftazidime inhibition halo (induction of AmpC)” value in experiment [1] is on record as “synergic picture”. The “MIC of cefotaxime with compound” value in experiment [2] came out at 4 µg/mL; in [3], 2 µg/mL; in experiment [5], 2 µg/mL; in experiment [6], 8 µg/mL; in experiment [7], 8 µg/mL; in experiment [9], 32 µg/mL. Also, the “MIC of ceftazidime with compound” value in experiment [2] was found to be 4 µg/mL; in [3], 4 µg/mL; in [5] it was 8 µg/mL; in experiment [6], 1 µg/mL; in experiment [7], 4 µg/mL; in experiment [9], 8 µg/mL. The IC50 at CTX-M-9 β-lactamase is 1500 nM; at cruzain (read-out: IC50), over 500000 nM; in [4] (read-out: IC50), over 500000 nM. In addition, the Ki at CTX-M-9 β-lactamase (Table 8, read-out: Ki vs CTX-M-9) is 550 nM. Besides, the “time dependence of inhibition (incubation effect, off-rate)” value on AmpC β-lactamase is listed as “no measurable time dependence”. In addition, the “inhibition at 100 µM” value (against cruzain; in experiment [4]) was “no measurable inhibition” each time. The “inhibition of bacterial growth in combination with ceftazidime” value in experiment [8] is given as “large inhibition halo”. In experiment [8], the “activity on bacteria growth, compound alone” value was “little or no detectable activity”.
